For one test, the target named is T1, NAMPT (Homo sapiens, UniProt P43490).
T1 construct: His tag; host or cells: E. coli
The experiment in a line: Biochemical inhibition assay: NAMPT enzymatic reaction, NMN quantified by mass spectrometry. The note with it: NAMPT enzymatic reaction; read-out: Biochem IC50. The method, boiled down:
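Inhibition of E. coli-expressed His-tagged human NAMPT, measured as NMN formation by mass spectrometry after a 30 min room-temperature reaction containing 1 μM NAM, 100 μM PRPP and 2.5 mM ATP.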

The test system of the next test is A2780 cells. The experiment in a line: In-vitro cell proliferation assay (SRB), A2780 cells. The note with it: Homo sapiens, A2780, 72 h, A2780 cells, 72 hours, SRB; read-out: A2780 IC50. It counts as cell-based. In outline:
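Read-out is SRB absorbance at 570 nm on TCA-fixed cells after 72 hours of compound treatment at 37° C. in 5% CO2. Background from a media-only plate is subtracted, and % inhibition is interpolated between two tested concentrations.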

T1 sequence (P43490 whole entry): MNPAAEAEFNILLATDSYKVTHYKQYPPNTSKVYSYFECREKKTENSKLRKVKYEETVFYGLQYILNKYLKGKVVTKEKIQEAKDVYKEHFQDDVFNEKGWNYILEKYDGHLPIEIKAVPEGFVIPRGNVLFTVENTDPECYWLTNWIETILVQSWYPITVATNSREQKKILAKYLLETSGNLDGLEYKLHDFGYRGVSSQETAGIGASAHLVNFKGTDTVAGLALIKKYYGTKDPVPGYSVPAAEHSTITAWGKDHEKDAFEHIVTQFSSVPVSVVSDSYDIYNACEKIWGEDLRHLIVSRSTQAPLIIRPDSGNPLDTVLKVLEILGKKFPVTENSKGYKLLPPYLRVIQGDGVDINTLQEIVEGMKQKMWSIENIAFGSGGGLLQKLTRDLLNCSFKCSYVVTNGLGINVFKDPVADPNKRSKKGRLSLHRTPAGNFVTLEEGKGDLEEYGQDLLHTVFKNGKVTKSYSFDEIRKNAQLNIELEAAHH

As to `O=C(NCc1ccc(S(=O)(=O)c2ccc(-c3ccccc3)cc2)cc1)c1cc2cc(O)ccc2[nH]1`, the results for the IC50 on NAMPT and in the test on A2780 cells were 100 to 1000 nM and 1000 to 10000 nM, respectively.
For the compound `COc1c(Cl)ccc(S(=O)(=O)c2ccc(CNC(=O)c3cc4ccncc4s3)cc2)c1Cl`, the values for the IC50 on NAMPT and in the test on A2780 cells were 5.1 nM and 6.7 nM, respectively.
The corresponding values for `COc1ccc(S(=O)(=O)c2ccc(CNC(=O)c3cnc4[nH]ncc4c3)cc2)c(OC)c1` are 174 nM and 44.7 nM.
With `Cc1ccc(S(=O)(=O)c2ccc(CNC(=O)c3cc4ccncc4o3)cc2)c(C)c1`, the IC50 at NAMPT is 21.8 nM; with A2780 cells it was 24 nM.
Consider `Cc1cccc(S(=O)(=O)c2ccc(CNC(=O)c3cnc4nccn4c3)cc2)c1`, for which the IC50 was 1.9 nM at NAMPT and 9.1 nM with A2780 cells.
`O=C(NCc1ccc(S(=O)(=O)c2cccc(-c3ccccc3)c2)cc1)c1cc2cnccc2[nH]1`: the IC50 at NAMPT turned out to be 2.3 nM; in the test on A2780 cells, 11.9 nM.
With `O=C(NCc1ccc(S(=O)(=O)c2cccc(-c3ccccc3)c2)cc1)c1ccc2nccn2c1`, the IC50 at NAMPT came out at 12.2 nM; in the test with A2780 cells it was 6.8 nM.
In the case of `O=C(NCc1ccc(S(=O)(=O)c2cccc(-c3ccccc3)c2)cc1)c1cnc2nccn2c1`, the half-inhibitory concentration (IC50) worked out at 0.9 nM at NAMPT and 3.3 nM in the test on A2780 cells.
The corresponding values for `O=C(NCc1ccc(S(=O)(=O)c2cccc(-c3ccccc3)c2)cc1)c1cc2ccncc2s1` are 4.5 nM and 10 nM.
In the case of `CCCOc1cccc(S(=O)(=O)c2ccc(CNC(=O)c3cc4cnccc4[nH]3)cc2)c1`, the figures for the IC50 on NAMPT and in the test with A2780 cells were 10.2 nM and 12.2 nM, respectively.
Take `CCCOc1cccc(S(=O)(=O)c2ccc(CNC(=O)c3cc4ccncc4o3)cc2)c1`: the figures for the IC50 on NAMPT and in the test on A2780 cells were 10.1 nM and 25.2 nM, respectively.
As to `CCCOc1cccc(S(=O)(=O)c2ccc(CNC(=O)c3ccc4nccn4c3)cc2)c1`, the IC50 on NAMPT worked out at 4.2 nM; in the test on A2780 cells it was 6.3 nM.
With `CCCOc1cccc(S(=O)(=O)c2ccc(CNC(=O)c3cnc4nccn4c3)cc2)c1`, the figures for the IC50 at NAMPT and in the test on A2780 cells were 4.8 nM and 7.5 nM, respectively.
As to `CCCOc1cccc(S(=O)(=O)c2ccc(CNC(=O)c3cc4ccncc4s3)cc2)c1`, the IC50 was determined as 4 nM on NAMPT and 12.2 nM in the test with A2780 cells.
In the case of `NS(=O)(=O)c1cccc(S(=O)(=O)c2ccc(CNC(=O)c3cc4ccncc4s3)cc2)c1`, the IC50 on NAMPT was 2 nM; in the test with A2780 cells it was 12.1 nM.
The corresponding values for `NS(=O)(=O)c1cccc(S(=O)(=O)c2ccc(CNC(=O)c3ccc4nccn4c3)cc2)c1` are 10.3 nM and 54.6 nM.
`CC(C)(C)c1cccc(S(=O)(=O)c2ccc(CNC(=O)c3cnc4nccn4c3)cc2)c1`: the figures for the IC50 at NAMPT and in the test on A2780 cells were less than 0.65 nM and 1.2 nM, respectively.
For the compound `CC(C)(C)c1cccc(S(=O)(=O)c2ccc(CNC(=O)c3cc4ccncc4o3)cc2)c1`, the IC50 at NAMPT is 9.3 nM; in the test with A2780 cells, 7 nM.
For `CC(C)(C)c1cccc(S(=O)(=O)c2ccc(CNC(=O)c3cc4ccncc4s3)cc2)c1`, the IC50 on NAMPT is 10.5 nM; in the test with A2780 cells, 9.1 nM.
On the same counts, the results for `CC(=O)c1ccc(S(=O)(=O)c2ccc(CNC(=O)c3cnc4[nH]ncc4c3)cc2)cc1` are 28.9 nM and 3.7 nM.
The corresponding values for `CC(=O)c1ccc(S(=O)(=O)c2ccc(CNC(=O)c3cnc4nccn4c3)cc2)cc1` are 5.2 nM and 6.5 nM.
On the same counts, the results for `CCCCOc1ccc(S(=O)(=O)c2ccc(CNC(=O)c3cc4ccncc4s3)cc2)c(C)c1` are 3.3 nM and 100 to 1000 nM.
On to `CCCCOc1ccc(S(=O)(=O)c2ccc(CNC(=O)c3cc4cnccc4[nH]3)cc2)c(C)c1`, for which the figures for the IC50 on NAMPT and with A2780 cells were 80 nM and 62.5 nM, respectively.
For `CCCCOc1ccc(S(=O)(=O)c2ccc(CNC(=O)c3ccc4nccn4c3)cc2)c(C)c1`, the IC50 on NAMPT was 10 nM; with A2780 cells, 22.4 nM.
`CCCCOc1ccc(S(=O)(=O)c2ccc(CNC(=O)c3cc4ccncc4o3)cc2)c(C)c1`: the results for the IC50 on NAMPT and with A2780 cells were 16 nM and 64.8 nM, respectively.
With `CCCCOc1ccc(S(=O)(=O)c2ccc(CNC(=O)c3cc4ccncc4o3)cc2)cc1Cl`, the IC50 stood at 4.7 nM on NAMPT and 10 nM with A2780 cells.
As for `CCCCOc1ccc(S(=O)(=O)c2ccc(CNC(=O)c3cnc4[nH]ncc4c3)cc2)cc1Cl`, the 50% inhibitory concentration (IC50) at NAMPT was 4.5 nM; in the test on A2780 cells, 11.1 nM.
The corresponding values for `CCCCOc1ccc(S(=O)(=O)c2ccc(CNC(=O)c3cc4ccncc4s3)cc2)cc1Cl` are 4.8 nM and 12.5 nM.
Take `CCCCOc1ccc(S(=O)(=O)c2ccc(CNC(=O)c3cc4cnccc4[nH]3)cc2)cc1Cl`: the IC50 at NAMPT came to 17.8 nM; in the test on A2780 cells, 12.4 nM.
The corresponding values for `CCCCOc1ccc(S(=O)(=O)c2ccc(CNC(=O)c3ccc4nccn4c3)cc2)cc1Cl` are 4.1 nM and 7.6 nM.
The corresponding values for `CCCCOc1ccc(S(=O)(=O)c2ccc(CNC(=O)c3cc4cnccc4[nH]3)cc2)cc1F` are 53.6 nM and 13.4 nM.
On the same counts, the results for `CCCCOc1ccc(S(=O)(=O)c2ccc(CNC(=O)c3cnc4nccn4c3)cc2)cc1F` are 1.2 nM and 3.1 nM.
With `CCCCOc1ccc(S(=O)(=O)c2ccc(CNC(=O)c3cc4ccncc4o3)cc2)cc1F`, the values for the IC50 on NAMPT and with A2780 cells were 12.3 nM and 13.9 nM, respectively.
For `CCCCOc1ccc(S(=O)(=O)c2ccc(CNC(=O)c3ccc4nccn4c3)cc2)cc1F`, the IC50 was found to be 6.2 nM at NAMPT and 3.1 nM with A2780 cells.
For the compound `CCCCOc1ccc(S(=O)(=O)c2ccc(CNC(=O)c3ccc4nccn4c3)cc2)cc1`, the figures for the IC50 at NAMPT and with A2780 cells were 3.8 nM and 2.8 nM, respectively.
On the same counts, the results for `CCCCOc1ccc(S(=O)(=O)c2ccc(CNC(=O)c3cc4ccncc4s3)cc2)cc1` are 3.6 nM and 10.3 nM.
On the same counts, the results for `CCCCc1ccc(S(=O)(=O)c2ccc(CNC(=O)c3cc4cnccc4[nH]3)cc2)cc1` are 14.6 nM and 35.8 nM.
Turning to `CCCCc1ccc(S(=O)(=O)c2ccc(CNC(=O)c3cnc4nccn4c3)cc2)cc1`, the IC50 at NAMPT amounted to 5.3 nM; in the test with A2780 cells, 10.7 nM.
On the same counts, the results for `CCCCc1ccc(S(=O)(=O)c2ccc(CNC(=O)c3ccc4nccn4c3)cc2)cc1` are 5.7 nM and 7.6 nM.
On the same counts, the results for `CCCCc1ccc(S(=O)(=O)c2ccc(CNC(=O)c3cc4ccncc4s3)cc2)cc1` are 2.9 nM and 26 nM.
Regarding `CCOc1cc(Cl)ccc1S(=O)(=O)c1ccc(CNC(=O)c2cc3ccncc3s2)cc1`, the IC50 at NAMPT was 2.4 nM; in the test on A2780 cells it was less than 0.4 nM.
As for `CCOc1cc(Cl)ccc1S(=O)(=O)c1ccc(CNC(=O)c2cc3cnccc3[nH]2)cc1`, the IC50 at NAMPT is 11.2 nM; in the test with A2780 cells, 0.4 nM.
Regarding `CCOc1cc(Cl)ccc1S(=O)(=O)c1ccc(CNC(=O)c2ccc3nccn3c2)cc1`, the IC50 on NAMPT was determined as 4.1 nM; in the test with A2780 cells, 0.7 nM.
Consider `CCOc1cc(Cl)ccc1S(=O)(=O)c1ccc(CNC(=O)c2cc3ccncc3o2)cc1`, for which the IC50 stood at 7.2 nM at NAMPT and 5.1 nM in the test on A2780 cells.
In the case of `CCOc1cc(Cl)ccc1S(=O)(=O)c1ccc(CNC(=O)c2cnc3nccn3c2)cc1`, the IC50 on NAMPT was 2 nM; with A2780 cells it was 4.5 nM.
For `COc1cc(Cl)ccc1S(=O)(=O)c1ccc(CNC(=O)c2cnc3nccn3c2)cc1`, the concentration for half-maximal inhibition (IC50) at NAMPT stood at 3.3 nM; with A2780 cells, 24.7 nM.
As to `COc1cc(Cl)ccc1S(=O)(=O)c1ccc(CNC(=O)c2cc3ccncc3o2)cc1`, the IC50 amounted to 8.5 nM on NAMPT and 24.8 nM with A2780 cells.
Consider `Cc1cc(Cl)ccc1S(=O)(=O)c1ccc(CNC(=O)c2cnc3nccn3c2)cc1`, for which the IC50 at NAMPT stood at 6.6 nM; in the test with A2780 cells, 53.9 nM.
In the case of `O=C(NCc1ccc(S(=O)(=O)c2ccc(Cl)c(F)c2)cc1)c1cc2ccncc2o1`, the figures for the IC50 on NAMPT and in the test with A2780 cells were 18.5 nM and 6.5 nM, respectively.
In the case of `O=C(NCc1ccc(S(=O)(=O)c2ccc(Cl)c(F)c2)cc1)c1cnc2nccn2c1`, the IC50 on NAMPT was 1.9 nM; with A2780 cells, 8.9 nM.
In the case of `COc1cc(S(=O)(=O)c2ccc(CNC(=O)c3ccc4nccn4c3)cc2)ccc1Cl`, the IC50 at NAMPT came to 13.5 nM; with A2780 cells it was 6 nM.
As for `COc1cc(S(=O)(=O)c2ccc(CNC(=O)c3cc4ccncc4s3)cc2)ccc1Cl`, the IC50 stood at 2.6 nM at NAMPT and 2.3 nM with A2780 cells.
On the same counts, the results for `COc1cc(S(=O)(=O)c2ccc(CNC(=O)c3cnc4nccn4c3)cc2)ccc1Cl` are 2.7 nM and 5.2 nM.
For `COc1cc(S(=O)(=O)c2ccc(CNC(=O)c3cc4cnccc4[nH]3)cc2)ccc1Cl`, the IC50 on NAMPT came to 5.5 nM; with A2780 cells, 3.6 nM.
On the same counts, the results for `COc1cc(S(=O)(=O)c2ccc(CNC(=O)c3cnc4[nH]ncc4c3)cc2)ccc1Cl` are 12.7 nM and 13 nM.
On to `O=C(NCc1ccc(S(=O)(=O)c2ccc(Cl)cc2)cc1)c1cnc2nccn2c1`, for which the IC50 at NAMPT was 2.5 nM; in the test with A2780 cells, 23.6 nM.
With `N#Cc1ccc(S(=O)(=O)c2ccc(CNC(=O)c3ccc4nccn4c3)cc2)cc1`, the IC50 at NAMPT is 16 nM; in the test on A2780 cells, 14.1 nM.
The corresponding values for `O=C(NCc1ccc(S(=O)(=O)c2ccc(C3CCCCC3)cc2)cc1)c1cc2ccncc2s1` are 3.4 nM and 12.9 nM.
On the same counts, the results for `O=C(NCc1ccc(S(=O)(=O)c2ccc(C3CCCCC3)cc2)cc1)c1ccc2nccn2c1` are 17.8 nM and 11.7 nM.
The corresponding values for `O=C(NCc1ccc(S(=O)(=O)c2ccc(C3CCCCC3)cc2)cc1)c1cnc2nccn2c1` are 5.8 nM and 7.7 nM.
For `COc1cc(F)c(F)cc1S(=O)(=O)c1ccc(CNC(=O)c2cnc3nccn3c2)cc1`, the IC50 at NAMPT was found to be 11.9 nM; in the test on A2780 cells it was 24.9 nM.

For the origin of these results see patent US12336981B2, “Compounds and compositions for the inhibition of NAMPT” (Valo Health, Inc., priority 2010, dated 2025).
